Data taken from patent US9815796B2 (Merck Sharp & Dohme Corp., priority 2013, dated 2017).

Assays:
[1] = test system: other PDE isoforms; conditions: reported in Brandon et al., Annual Reports in Medicinal Chemistry 42: 4-5, 2007; cited from earlier work
[2] = reported in Brandon et al., Annual Reports in Medicinal Chemistry 42: 4-5, 2007; cited from earlier work
[3] = target: Rhesus PDE2A3 (Macaca mulatta, UniProt B3VTJ2); experiment: PDE2 fluorescence polarization (IMAP FP) inhibition assay, rhesus enzyme; assay type: biochemical, rhesus macaque; conditions: Rhesus PDE2, Lab B; read-out: Rhesus PDE2 Ki (nM) - Lab B
Rhesus PDE2A3, sequence (B3VTJ2 1-941): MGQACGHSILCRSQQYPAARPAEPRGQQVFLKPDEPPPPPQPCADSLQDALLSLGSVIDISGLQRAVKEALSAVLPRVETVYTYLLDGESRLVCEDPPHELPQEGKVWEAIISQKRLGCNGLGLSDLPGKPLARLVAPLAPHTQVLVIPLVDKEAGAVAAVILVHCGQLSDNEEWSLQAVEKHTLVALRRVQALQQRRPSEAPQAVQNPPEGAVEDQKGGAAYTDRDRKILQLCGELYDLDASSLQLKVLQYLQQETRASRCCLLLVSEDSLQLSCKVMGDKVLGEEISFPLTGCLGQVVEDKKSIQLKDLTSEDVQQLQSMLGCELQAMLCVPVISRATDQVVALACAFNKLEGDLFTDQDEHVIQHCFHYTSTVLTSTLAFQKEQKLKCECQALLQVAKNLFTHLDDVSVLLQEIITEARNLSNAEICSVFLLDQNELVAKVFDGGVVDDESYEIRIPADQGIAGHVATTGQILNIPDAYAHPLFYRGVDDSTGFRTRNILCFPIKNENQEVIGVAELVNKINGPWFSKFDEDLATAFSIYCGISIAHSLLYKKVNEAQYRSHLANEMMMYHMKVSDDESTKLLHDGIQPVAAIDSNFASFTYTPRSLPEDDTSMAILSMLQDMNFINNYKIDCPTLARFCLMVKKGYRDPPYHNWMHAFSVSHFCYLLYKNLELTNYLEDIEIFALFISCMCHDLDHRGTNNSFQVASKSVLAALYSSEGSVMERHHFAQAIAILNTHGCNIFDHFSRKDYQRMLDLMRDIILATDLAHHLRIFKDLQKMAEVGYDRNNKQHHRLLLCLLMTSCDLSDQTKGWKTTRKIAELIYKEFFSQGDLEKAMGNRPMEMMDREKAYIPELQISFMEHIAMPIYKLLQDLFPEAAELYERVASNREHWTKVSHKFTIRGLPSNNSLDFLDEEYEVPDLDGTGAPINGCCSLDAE
Summary of the method: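 IMAP FP (mP from parallel and perpendicular fluorescence against substrate-only control) was read ≥1 h after adding binding reagent. The preceding 60 min room-temperature reaction contained FAM-cAMP (50 nM) and cGMP (1 uM) in pH 7.2 Tris buffer with MgCl2 and DTT. Enzyme was supernatant of sonicated AD293 cells expressing rhesus PDE2A3; compounds were 3-fold titrated, DMSO 1% final.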

[4] = target: human PDE2A1 (Homo sapiens (Human), UniProt O00408); experiment: IMAP FP PDE selectivity panel, human PDE2A1; assay type: biochemical; conditions: Human PDE2, Lab B; read-out: Human PDE2 Ki (nM) - Lab B
human PDE2A1, sequence (O00408 other isoform, or with tags, fused parts or gaps): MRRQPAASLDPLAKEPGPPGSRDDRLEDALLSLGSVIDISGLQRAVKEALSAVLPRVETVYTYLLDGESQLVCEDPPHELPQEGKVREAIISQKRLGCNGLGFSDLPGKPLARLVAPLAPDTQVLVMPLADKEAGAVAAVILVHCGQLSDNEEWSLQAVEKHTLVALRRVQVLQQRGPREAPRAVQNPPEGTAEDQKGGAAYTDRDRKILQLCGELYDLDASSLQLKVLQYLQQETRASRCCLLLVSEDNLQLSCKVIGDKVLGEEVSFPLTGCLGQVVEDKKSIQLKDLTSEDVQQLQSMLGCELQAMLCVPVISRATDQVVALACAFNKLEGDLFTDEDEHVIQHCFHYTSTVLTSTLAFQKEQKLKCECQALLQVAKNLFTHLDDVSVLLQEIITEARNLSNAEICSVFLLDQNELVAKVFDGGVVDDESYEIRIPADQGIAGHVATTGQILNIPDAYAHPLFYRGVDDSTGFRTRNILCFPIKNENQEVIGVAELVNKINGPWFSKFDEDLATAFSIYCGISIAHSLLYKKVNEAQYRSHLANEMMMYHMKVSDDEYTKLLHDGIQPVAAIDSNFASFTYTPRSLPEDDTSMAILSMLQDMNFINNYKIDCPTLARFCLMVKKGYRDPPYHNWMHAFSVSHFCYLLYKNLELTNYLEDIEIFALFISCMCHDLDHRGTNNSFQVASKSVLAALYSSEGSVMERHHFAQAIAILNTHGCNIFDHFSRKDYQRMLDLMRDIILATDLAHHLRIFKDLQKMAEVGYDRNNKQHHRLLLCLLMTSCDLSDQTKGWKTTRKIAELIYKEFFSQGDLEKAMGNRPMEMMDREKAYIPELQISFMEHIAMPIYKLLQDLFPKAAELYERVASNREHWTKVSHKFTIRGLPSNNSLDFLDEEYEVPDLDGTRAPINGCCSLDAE
Summary of the method: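 IMAP FP format: substrate 50 nM FAM-cAMP plus 1000 nM cGMP, enzyme (insect-cell GST-tagged human PDE2A1) at ~20% conversion, 60 min reaction at room temperature. Apparent inhibition constants calculated from parallel/perpendicular fluorescence with KM 10,000 nM.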

Row | Ki [3] [nM] | Ki [4] [nM] | SMILES | potency at other PDE isoforms [1] | brain penetration [2]
1 |  |  | COc1ccc(Cc2nn3c([C@@H](CCCc4ccccc4)[C@@H](C)O)nc(C)c3c(=O)[nH]2)cc1OC [BAY 60-7550] | significant potency at other PDE isoforms | limited brain penetration
2 | 13 | 12 | Cc1nc(C(=O)N[C@@H](c2ccc(C(F)(F)F)c(F)c2)C2(C)CC2)cc(=O)[nH]1 [Example 613, N-[(R)-[3-fluoro-4-(trifluoromethyl)phenyl](1-methylcyclopropyl)methyl]-2-methyl-6-oxo-1,6-dihydropyrimidine-4-carboxamide] |  | 
3 | 20 | 17 | Cc1nc(C(=O)N[C@@H](c2ccc(C(C)(C)C)cc2)C2(C)CC2)cc(=O)[nH]1 [Example 614, N-[(R)-(4-tert-butylphenyl)(1-methylcyclopropyl)methyl]-2-methyl-6-oxo-1,6-dihydropyrimidine-4-carboxamide] |  | 
4 | 4.2 | 4 | Cc1nc(C(=O)N[C@@H](c2ccc(C(F)(F)F)cc2F)C(C)(C)C)cc(=O)[nH]1 [Example 617] |  | 
5 | 2 | 2 | Cc1nc(C(=O)N[C@@H](c2ccc(S(F)(F)(F)(F)F)cc2)C(C)(C)C)cc(=O)[nH]1 [Example 618, N-{(1R)-2,2-dimethyl-1-[4-(pentafluoro-λ^6-sulfanyl)phenyl]propyl}-2-methyl-6-oxo-1,6-dihydropyrimidine-4-carboxamide] |  | 
6 | 15 | 19 | Cc1nc(C(=O)N[C@H](C)c2ccc(C3CC3)c(F)c2)cc(=O)[nH]1 [Example 620, N-[(1R)-1-(4-cyclopropyl-3-fluorophenyl)ethyl]-2-methyl-6-oxo-1,6-dihydropyrimidine-4-carboxamide] |  | 
7 | 5.1 | 5.2 | Cc1nc(C(=O)N[C@@H](c2ccc(C3CC3)c(F)c2)C(C)C)cc(=O)[nH]1 [Example 621, N-[(1R)-1-(4-cyclopropyl-3-fluorophenyl)-2-methylpropyl]-2-methyl-6-oxo-1,6-dihydropyrimidine-4-carboxamide] |  | 
8 | 32 | 42 | Cc1nc(C(=O)NC2(c3ccc(S(F)(F)(F)(F)F)cc3)CC2)cc(=O)[nH]1 [Example 622, 2-methyl-6-oxo-N-{1-[4-(pentafluoro-λ^6-sulfanyl)phenyl]cyclopropyl}-1,6-dihydropyrimidine-4-carboxamide] |  | 
9 | 29 | 31 | Cc1nc(C(=O)NC2(c3ccc(C(C)(C)C)cc3)CC2)cc(=O)[nH]1 [Example 623, N-[1-(4-tert-butylphenyl)cyclopropyl]-2-methyl-6-oxo-1,6-dihydropyrimidine-4-carboxamide] |  | 
10 | 80 | 87 | CC(C)(NC(=O)c1cc(=O)[nH]c(C2CC2)n1)c1ccc(S(F)(F)(F)(F)F)cc1 [Example 680, 2-cyclopropyl-N-{1-methyl-1-[4-(pentafluoro-λ^6-sulfanyl)phenyl]ethyl}-6-oxo-1,6-dihydropyrimidine-4-carboxamide] |  | 
